# In patent publication US8816095B2, “Na channels, disease, and related assays and compositions” (Georgetown University, priority 2008, dated 2014):
# Key:
# hNav1.5 = biological target: T1, hNav1.5 (Homo sapiens, UniProt Q14524); test: Fluorescent (FRET) based sodium channel assay, hNav1.5; format: cell-based; conditions: HEK293 stably transfected with hNav1.5, 10 μM veratridine, read-out: hNav 1.5 IC50
# T1 construct: expressed in transfected cells; host or cells: HEK293
# Method: Two isoforms of the channel were examined: hNav1.5, a cardiac sodium channel associated with arrhythmias, and hNav1.7, an isoform found in the peripheral nervous system.
# HEK293 cells stably transfected with either hNav1.5 or hNav1.7 were plated at approximately 11,000-20,000 cells/well in flat bottom, poly-D-lysine coated black-wall, clear-bottom, 384-well plates (Becton Dickinson, Bedford, Mass.), and incubated overnight at 37° C. in a 10% CO2 atmosphere in growth medium. Cells were washed with 0.03 mL of Dulbecco's phosphate buffered saline (D-PBS) containing calcium and magnesium. Cells were then incubated with 0.025 mL of a solution containing 10 μM CC2-DMPE and 0.02% pluronic acid in D-PBS with calcium and magnesium; supplemented with 10 mM glucose, and 10 mM Hepes-NaOH, pH 7.4. […] At the end of the incubation period, the plate was placed in a FLIPR TETRA instrument (MDS Analytical Technologies, Sunnyvale Calif.), illuminated at 390-420 nm, and fluorescence emissions were recorded at approximately 1 Hz at 460 and 580 nm. Following a 7 second baseline reading, 0.025 mL of VIPR-S containing 10 μM veratridine for Nav1.5 or 20 μM veratridine for Nav1.7 was added to each well, and the emissions of both dyes were recorded for an additional 33 seconds. […]
# site 2 of the VGSC = test: [3H]-BTX-B displacement assay at site 2; format: binding, rat
# hERG potassium channels = biological target: T2, hERG potassium channels (Homo sapiens, UniProt Q12809); test: hERG binding assay ([35S]MK-499 displacement); conditions: [35S]MK-499, HEK-293 hERG membranes
# T2 construct: expressed in transfected cells; host or cells: HEK-293 (membranes)
# Source text: All four compounds were also counter-screened for human ether-a-go-go-related gene (hERG) activity against the radio-ligand MK-0499. Blockade of hERG K^+ channels is widely regarded as the predominant cause of drug-induced QT prolongation. (Aronov, A J Med Chem. 2006 Nov. 16; 49(23):6917-21).
# MK-499, a potent hERG blocker, was used in a ligand binding assay to evaluate the binding of test compounds to hERG potassium channels as previously described (Wang, J et al. Am J Physiol Heart Circ Physiol, 2003, 284: H256-H267).^2 Test compounds were incubated with 0.05 nM of radiolabeled MK-499 ([35S]MK-499; specific Activity=1,279,010 μCi/μmol) in an assay buffer solution (70 mM NaCl, 60 mM KCl, 10 mM HEPES/NaOH (pH 7.4), 2 mM MgCl2, 1 mM CaCl2) also containing membranes isolated from HEK-293 cells stably expressing hERG channels in 96 well polypropylene deep-well assay plates at room temperature (25° C.) for >90 min. Assay plates were rinsed three time with buffer (130 mM NaCl, 10 mM HEPES/NaOH (pH 7.4), 2 mM MgCl2, 1 mM CaCl2) and the solution transferred to a Packard FilterMate Universal Harvester apparatus and filtered using PerkinElmer UniFilter-96 GF/C 96-well white microplates pre-soaked with 0.3% BSA (10 mL/L of 30% BSA). Plates were dried overnight at 37° C., or for 2 hrs at 56° C. The bottom of the plates were sealed and 0.025 mL of Microscint 0 was added to each well. The plates were top sealed and counted for 2 min/well in a Packard TopCount Scintillation counter. Test compounds were evaluated in a five point titration format using half-log steps from 0.3 μM to 30 μM. […] Less than 5% of the added radioactivity was retained on the filters. Assays were performed in triplicate.
# T2 sequence (Q12809 whole entry): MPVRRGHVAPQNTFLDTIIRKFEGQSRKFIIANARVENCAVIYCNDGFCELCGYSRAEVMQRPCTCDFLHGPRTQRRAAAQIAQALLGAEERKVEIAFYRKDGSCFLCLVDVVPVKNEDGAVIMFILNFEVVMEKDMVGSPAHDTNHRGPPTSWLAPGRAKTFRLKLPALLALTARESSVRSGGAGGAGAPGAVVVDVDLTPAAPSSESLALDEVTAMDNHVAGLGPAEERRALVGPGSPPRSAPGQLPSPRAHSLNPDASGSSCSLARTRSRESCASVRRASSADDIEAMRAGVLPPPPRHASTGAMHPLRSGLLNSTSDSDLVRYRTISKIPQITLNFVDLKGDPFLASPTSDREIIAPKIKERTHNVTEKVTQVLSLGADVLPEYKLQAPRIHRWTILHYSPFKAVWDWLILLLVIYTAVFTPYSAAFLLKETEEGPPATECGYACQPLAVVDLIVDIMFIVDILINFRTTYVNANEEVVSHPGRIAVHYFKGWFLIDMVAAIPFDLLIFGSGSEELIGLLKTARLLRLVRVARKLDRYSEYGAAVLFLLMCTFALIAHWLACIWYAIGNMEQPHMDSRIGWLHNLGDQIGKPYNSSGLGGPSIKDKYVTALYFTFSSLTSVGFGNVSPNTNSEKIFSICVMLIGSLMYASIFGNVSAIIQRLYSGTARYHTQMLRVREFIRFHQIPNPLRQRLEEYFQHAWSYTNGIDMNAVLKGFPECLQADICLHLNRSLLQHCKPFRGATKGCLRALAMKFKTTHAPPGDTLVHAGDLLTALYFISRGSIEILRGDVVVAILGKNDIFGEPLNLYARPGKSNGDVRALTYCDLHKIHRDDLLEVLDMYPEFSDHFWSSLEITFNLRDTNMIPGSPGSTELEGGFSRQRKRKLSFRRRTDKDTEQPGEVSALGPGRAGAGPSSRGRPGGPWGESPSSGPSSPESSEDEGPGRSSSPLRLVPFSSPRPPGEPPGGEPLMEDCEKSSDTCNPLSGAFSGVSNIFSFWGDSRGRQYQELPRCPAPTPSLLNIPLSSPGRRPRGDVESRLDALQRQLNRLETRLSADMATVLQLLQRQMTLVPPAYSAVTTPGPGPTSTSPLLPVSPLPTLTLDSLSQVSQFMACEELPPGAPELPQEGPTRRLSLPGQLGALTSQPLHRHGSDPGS
# T1 sequence (Q14524 whole entry): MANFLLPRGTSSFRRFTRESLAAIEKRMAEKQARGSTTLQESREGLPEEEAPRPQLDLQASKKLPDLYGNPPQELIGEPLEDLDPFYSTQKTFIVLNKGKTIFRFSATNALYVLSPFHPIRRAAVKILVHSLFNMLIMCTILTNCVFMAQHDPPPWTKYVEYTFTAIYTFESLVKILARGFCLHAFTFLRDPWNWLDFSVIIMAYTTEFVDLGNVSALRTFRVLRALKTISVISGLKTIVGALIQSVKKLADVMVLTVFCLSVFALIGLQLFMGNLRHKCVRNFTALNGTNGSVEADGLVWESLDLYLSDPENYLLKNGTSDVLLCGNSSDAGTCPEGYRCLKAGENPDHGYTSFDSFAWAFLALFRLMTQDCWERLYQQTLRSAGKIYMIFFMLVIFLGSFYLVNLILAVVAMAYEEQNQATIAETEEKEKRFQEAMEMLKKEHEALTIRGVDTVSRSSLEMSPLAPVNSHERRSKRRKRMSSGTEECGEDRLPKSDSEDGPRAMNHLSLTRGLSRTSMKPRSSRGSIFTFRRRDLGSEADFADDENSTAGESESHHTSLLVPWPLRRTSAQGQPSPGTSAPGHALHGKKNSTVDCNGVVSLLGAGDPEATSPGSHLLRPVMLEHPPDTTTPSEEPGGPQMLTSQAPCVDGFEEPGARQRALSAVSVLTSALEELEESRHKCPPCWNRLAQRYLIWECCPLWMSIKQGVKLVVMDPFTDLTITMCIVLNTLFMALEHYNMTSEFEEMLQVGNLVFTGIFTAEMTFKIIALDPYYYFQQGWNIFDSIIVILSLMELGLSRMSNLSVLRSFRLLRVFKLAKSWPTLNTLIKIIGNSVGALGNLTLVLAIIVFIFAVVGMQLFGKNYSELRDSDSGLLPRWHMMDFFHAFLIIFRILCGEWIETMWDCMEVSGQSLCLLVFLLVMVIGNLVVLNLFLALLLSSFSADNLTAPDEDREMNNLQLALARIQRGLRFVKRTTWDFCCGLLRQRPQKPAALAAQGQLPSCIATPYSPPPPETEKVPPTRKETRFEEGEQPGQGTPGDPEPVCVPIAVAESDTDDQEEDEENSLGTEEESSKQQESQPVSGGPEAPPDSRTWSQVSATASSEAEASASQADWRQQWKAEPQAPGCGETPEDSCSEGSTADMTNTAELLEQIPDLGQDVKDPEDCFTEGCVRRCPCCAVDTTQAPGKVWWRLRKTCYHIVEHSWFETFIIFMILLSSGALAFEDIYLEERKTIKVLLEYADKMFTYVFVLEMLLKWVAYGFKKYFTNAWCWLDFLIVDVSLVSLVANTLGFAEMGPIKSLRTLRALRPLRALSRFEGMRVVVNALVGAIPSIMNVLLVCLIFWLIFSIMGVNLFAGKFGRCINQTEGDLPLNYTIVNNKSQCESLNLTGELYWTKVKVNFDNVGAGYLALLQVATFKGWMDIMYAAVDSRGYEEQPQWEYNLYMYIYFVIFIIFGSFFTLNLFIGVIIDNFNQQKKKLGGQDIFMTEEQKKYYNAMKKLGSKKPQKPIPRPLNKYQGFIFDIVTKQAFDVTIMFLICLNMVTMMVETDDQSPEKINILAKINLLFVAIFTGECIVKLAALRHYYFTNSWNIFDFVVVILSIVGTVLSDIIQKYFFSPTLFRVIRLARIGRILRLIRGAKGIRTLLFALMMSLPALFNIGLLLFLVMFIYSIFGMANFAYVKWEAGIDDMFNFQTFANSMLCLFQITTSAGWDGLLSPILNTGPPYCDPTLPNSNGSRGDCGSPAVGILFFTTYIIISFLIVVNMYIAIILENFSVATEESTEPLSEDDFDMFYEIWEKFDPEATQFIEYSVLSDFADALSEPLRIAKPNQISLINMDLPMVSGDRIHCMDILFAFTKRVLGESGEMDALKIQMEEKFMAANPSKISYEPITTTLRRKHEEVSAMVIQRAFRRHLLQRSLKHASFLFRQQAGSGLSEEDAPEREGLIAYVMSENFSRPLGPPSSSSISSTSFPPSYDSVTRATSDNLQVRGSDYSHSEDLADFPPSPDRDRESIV
structure (smiles),measurement,setting,value
"O=C1NC(=O)C(c2ccccc2)(c2ccccc2)N1 [DPH, Diphenylhydantoin, reference compound]",IC50,hNav1.5,> 100 µM
same,% [3H]-BTX Inhibition (40 μM),"site 2 of the VGSC; 40 μM, rat brain synaptoneurosomes, Table 9",30.4 ± 3.3%
same,% [3H]-BTX Displacement (40 μm),"site 2 of the VGSC; 40 μm, rat brain synaptoneurosomes, Table 13",27.7%
same,"[3H]-BTX-B Binding Data, Displacement %","site 2 of the VGSC; Screen at 40 μM, 2 replicates, referenced to Aconitine",50%
same,"% inhibition for hERG assay, 0.3 μM",hERG potassium channels; 0.3 μM,9%
same,"% inhibition for hERG assay, 1 μM",hERG potassium channels; 1 μM,20%
same,"% inhibition for hERG assay, 3 μM",hERG potassium channels; 3 μM,28%
same,"% inhibition for hERG assay, 10 μM",hERG potassium channels; 10 μM,17%
same,"% inhibition for hERG assay, 30 μM",hERG potassium channels; 30 μM,40%
